From ChEMBL document CHEMBL1151142, “Triterpenoids and Flavonoids from Hyptis albida” (J Nat Prod, 1990)

Tested on: Artemia
Experiment: Toxicity against brine shrimp
Format: organism-based
Conditions: in vivo

Question: With `COc1ccc(-c2oc3cc(O)cc(O)c3c(=O)c2OC)cc1` [ERMANIN] as the compound, how does the LC50 read?
Answer: > 700 ppm

Question: Which LC50 does the source give for `COc1ccc(-c2oc3cc(OC)cc(O)c3c(=O)c2OC)cc1` here?
Answer: > 700 ppm

Question: With `CC1(C)CC[C@@]23CC[C@]4(C)[C@@](C=C[C@@H]5[C@@]6(C)CC[C@H](O)C(C)(C)[C@@H]6CC[C@]54C)(OC2=O)[C@@H]3C1` as the compound, how does the LC50 read?
Answer: > 700 ppm

Question: For `C[C@H]1[C@H](C)CC[C@]2(C(=O)O)CC[C@]3(C)C(=CC[C@@H]4[C@@]5(C)CC[C@H](O)C(C)(C)[C@@H]5CC[C@]43C)[C@H]12` [URSOLIC ACID], which LC50 is on record?
Answer: > 700 ppm

Question: With `CC1(C)CC[C@]2(C(=O)O)CC[C@]3(C)C(=CC[C@@H]4[C@@]5(C)CC[C@H](O)C(C)(C)[C@@H]5CC[C@]43C)[C@@H]2C1` [OLEANOLIC_ACID] as the compound, how does the LC50 read?
Answer: > 700 ppm

Question: Which LC50 does the source give for `CC1(C)CC[C@@]23CC[C@]4(C)[C@@](CC[C@@H]5[C@@]6(C)CC[C@H](O)C(C)(C)[C@@H]6CC[C@]54C)(OC2=O)[C@@H]3C1` here?
Answer: > 700 ppm

Question: How did the LC50 turn out when `CC(=O)O[C@H]1CC[C@]2(C)[C@H]3CC=C4[C@@H]5CC(C)(C)CC[C@]5(C(=O)O)CC[C@@]4(C)[C@]3(C)CC[C@H]2C1(C)C` [ACETYL OLEANOLIC ACID] was run?
Answer: > 700 ppm

Question: `C=C(C)[C@@H]1CC[C@]2(C(=O)O)CC[C@]3(C)[C@H](CC[C@@H]4[C@@]5(C)CC[C@H](O)C(C)(C)[C@@H]5CC[C@]43C)[C@@H]12` [BETULINIC ACID] was tested. Which LC50 did it give?
Answer: > 700 ppm

Question: `CC1(C)CC[C@@]23CC[C@]4(C)[C@@](OC2=O)([C@@H]3C1)[C@H]1O[C@H]1[C@@H]1[C@@]2(C)CC[C@H](O)C(C)(C)[C@@H]2CC[C@]14C` was tested. Which LC50 did it give?
Answer: > 700 ppm

Question: How did the LC50 turn out when `COc1ccc(-c2cc(=O)c3c(O)cc(OC)cc3o2)cc1` [APIGENIN DIMETHYLETHER] was run?
Answer: > 700 ppm

Question: `COc1ccc(-c2cc(=O)c3c(O)c(OC)c(OC)c(OC)c3o2)cc1` [GARDENIN B] was tested. Which LC50 did it give?
Answer: > 700 ppm

Question: With `COc1ccc(-c2cc(=O)c3c(O)c(OC)c(O)c(OC)c3o2)cc1` [NEVADENSIN] as the compound, how does the LC50 read?
Answer: > 700 ppm
